Assay results: ChEMBL document CHEMBL4177767, “Discovery of N2-(4-Amino-cyclohexyl)-9-cyclopentyl- N6-(4-morpholin-4-ylmethyl-phenyl)- 9H-purine-2,6-diamine as a Potent FLT3 Kinase Inhibitor for Acute Myeloid Leukemia with FLT3 Mutations” (J Med Chem, 2018)

What was measured:
[1] = biological target: Receptor-type tyrosine-protein kinase FLT3 (Homo sapiens, UniProt P36888, ITD); assay: biochemical; assay type: cell-based, Sf9
Description: Inhibition of N-terminal GST/His6-fused recombinant human FLT3 (R571 to S993 residues) ITD mutant expressed in Sf9 insect cells using poly (Ala,Glu,Lys,Tyr) 6:2:5:1 hydrobromide as substrate in presence of [gamma-33P]ATP

MV4-11 = assay: Growth inhibition of human MV4-11 cells after 72 hrs by calcein AM dye-based fluorescence assay; assay type: functional; settings: MV4-11, 72 h
K562 = assay: cells; settings: Homo sapiens, K562, 72 h

Receptor-type tyrosine-protein kinase FLT3, sequence (P36888 whole entry, looked up, change not shown): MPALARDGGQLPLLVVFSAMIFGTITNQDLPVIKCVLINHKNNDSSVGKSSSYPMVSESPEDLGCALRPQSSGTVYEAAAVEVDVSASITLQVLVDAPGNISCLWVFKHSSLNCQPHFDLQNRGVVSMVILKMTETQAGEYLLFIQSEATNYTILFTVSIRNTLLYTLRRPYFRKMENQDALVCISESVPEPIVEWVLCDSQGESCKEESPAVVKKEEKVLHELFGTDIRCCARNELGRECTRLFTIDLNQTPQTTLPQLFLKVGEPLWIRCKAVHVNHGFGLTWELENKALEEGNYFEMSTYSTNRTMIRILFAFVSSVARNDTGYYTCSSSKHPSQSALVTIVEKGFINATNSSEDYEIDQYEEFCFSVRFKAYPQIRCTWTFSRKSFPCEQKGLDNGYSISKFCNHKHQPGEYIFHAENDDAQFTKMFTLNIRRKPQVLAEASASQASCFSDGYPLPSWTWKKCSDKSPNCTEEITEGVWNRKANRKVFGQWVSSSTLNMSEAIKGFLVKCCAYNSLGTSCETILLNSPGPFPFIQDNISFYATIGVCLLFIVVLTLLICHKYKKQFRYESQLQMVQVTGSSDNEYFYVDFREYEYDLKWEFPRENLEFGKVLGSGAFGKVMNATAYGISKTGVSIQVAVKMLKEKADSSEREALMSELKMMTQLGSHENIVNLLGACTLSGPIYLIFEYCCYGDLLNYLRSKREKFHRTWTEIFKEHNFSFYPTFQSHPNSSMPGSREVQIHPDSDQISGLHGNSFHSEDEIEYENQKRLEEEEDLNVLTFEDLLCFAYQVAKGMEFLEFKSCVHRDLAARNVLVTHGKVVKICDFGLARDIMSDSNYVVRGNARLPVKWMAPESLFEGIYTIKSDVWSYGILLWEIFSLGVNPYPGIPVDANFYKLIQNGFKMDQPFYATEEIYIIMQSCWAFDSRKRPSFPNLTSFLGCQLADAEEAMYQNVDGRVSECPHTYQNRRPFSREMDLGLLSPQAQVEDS

| IC50 [1] [nM] | GI50 (MV4-11) [nM] | GI50 (K562) [nM] | Structure (SMILES) |
| --- | --- | --- | --- |
| 6 | 17 | 700 | N[C@H]1CC[C@H](Nc2nc(Nc3ccc(N4CCN(Cc5ccccc5)CC4)cc3)c3ncn(C4CCCC4)c3n2)CC1 |
| 209 | 892 | 6690 | COc1ccc(CNc2nc(Nc3ccc(CN4CCOCC4)cc3)c3ncn(C4CCCC4)c3n2)cc1 |
| 798 | 2290 | 3070 | N[C@H]1CC[C@H](Nc2nc(Nc3ccc(Br)cc3)c3ncn(Cc4ccccc4)c3n2)CC1 |
| 50 | 701 | 11000 | c1cc(Nc2nc(N3CCCCC3)nc3c2ncn3C2CCCC2)ccc1CN1CCOCC1 |
| 47 | 157 | 2350 | OCCCNc1nc(Nc2ccc(CN3CCOCC3)cc2)c2ncn(C3CCCC3)c2n1 |
| 4 | 4 | 1300 | N[C@H]1CC[C@H](Nc2nc(Nc3ccc(N4CCOCC4)nc3)c3ncn(C4CCCC4)c3n2)CC1 |
| 4210 | 3200 | 7130 | CN1CCN(c2nc(Nc3ccc(Br)cc3)c3ncn(C4CCCCO4)c3n2)CC1 (configuration not stated) |
| 1200 | 3880 | 3740 | Brc1ccc(Nc2nc(N3CCOCC3)nc3c2ncn3C2CCCCO2)cc1 (configuration not stated) |
| 18 | 83 | 1450 | OCCCCNc1nc(Nc2ccc(CN3CCOCC3)cc2)c2ncn(C3CCCC3)c2n1 |
| 71 | 70 | > 25000 | c1cc(N2CCOCC2)ncc1Nc1nc(N2CCOCC2)nc2c1ncn2C1CCCC1 |
| 591 | 1500 | 17800 | CC(O)CNc1nc(Nc2ccc(Br)cc2)c2ncn(C(C)C)c2n1 (configuration not stated) |
| 1720 | 235 | 10900 | CC(O)CNc1nc(Nc2ccc(Cl)cc2)c2ncn(C3CCCC3)c2n1 (configuration not stated) |
| 19 | 61 | 4470 | c1cc(Nc2nc(N3CCOCC3)nc3c2ncn3C2CCCC2)ccc1CN1CCOCC1 |
| 5 | 21 | 840 | N[C@H]1CC[C@H](Nc2nc(Nc3ccc(Cl)cc3)c3ncn(C4CCCC4)c3n2)CC1 |
| 70 | 181 | 5170 | N[C@H]1CC[C@H](Nc2nc(Nc3ccc(Br)cc3)c3ncn(C4CCCCO4)c3n2)CC1 (some centres not stated) |
| 281 | 1310 | 7630 | C[C@@H](CO)CNc1nc(Nc2ccc(Br)cc2)c2ncn(C3CCCC3)c2n1 |
| > 20000 | > 4000 | > 12500 | Brc1ccc(Nc2nc(N3CCOCC3)nc3c2ncn3Cc2ccccc2)cc1 |
| 53 | 66 | 2740 | CN1CCN(c2nc(Nc3ccc(CN4CCOCC4)cc3)c3ncn(C4CCCC4)c3n2)CC1 |
| 9850 | > 4000 | 9450 | CC(O)CNc1nc(Nc2ccc(Br)cc2)c2ncn(Cc3ccccc3)c2n1 (configuration not stated) |
| 10 | 7 | 1170 | CC(C)n1cnc2c(Nc3ccc(Br)cc3)nc(N[C@H]3CC[C@H](N)CC3)nc21 |
| 628 | 444 | > 25000 | CC(O)CNc1nc(Nc2ccc(Br)cc2)c2ncn(C3CCCC3)c2n1 (configuration not stated) |
| 1140 | 2430 | 27900 | CC(O)CNc1nc(Nc2ccc(Br)cc2)c2ncn(C3CCCCO3)c2n1 (configuration not stated) |
| > 20000 | > 4000 | 3800 | CN1CCN(c2nc(Nc3ccc(Br)cc3)c3ncn(Cc4ccccc4)c3n2)CC1 |
| 29 | 110 | 2000 | OCCNc1nc(Nc2ccc(CN3CCOCC3)cc2)c2ncn(C3CCCC3)c2n1 |
